{"source": "patent USRE42274E1", "about": "“Cyclic peptide CXCR4 antagonists” (Eli Lilly and Company, priority 2007, dated 2011)", "assay": "Half-life in mice", "settings": "mouse, in vivo, read-out: half-life (T½) (converted)", "procedure": "Pharmacologic properties such as compound bioavailability, in vivo metabolic stability, and pharmacokinetic/pharmacodynamic properties can be determined by methods well known in the art of drug development. […] For example, in mice, the half-life (T½) of the compound of Example 58 is about 3 hours. With respect to pharmacodynamic properties, preferred compounds induce prolonged neutrophil and white blood cell mobilization in mice. For example, the compound of Example 25 induces a significant increase of neutrophils and white blood cells in peripheral blood for at least 6 hours after single dose subcutaneous administration at 5 mg/kg in mice.", "note": "Bridge positions count the residues as written; N and C are the ends. Square brackets hold non-standard residues; d marks the D form. Peptide text beside a SMILES is read from it. 2Nal = N[C@@H](Cc1ccc2ccccc2c1)C(=O)O; Lys(iPr) = CC(C)NCCCC[C@H](N)C(=O)O", "data": [{"smiles": "CC(C)NCCCC[C@@H]1NC(=O)[C@H](Cc2ccc(O)cc2)NC(=O)[C@H](Cc2ccccc2)NC(=O)CC[C@H](C(=O)N[C@@H](CCCNC(=N)N)C(N)=O)NC(=O)CNC(=O)[C@H](Cc2ccc3ccccc3c2)NC(=O)[C@@H](CCCNC(=N)N)NC1=O", "note": "[Example 58, cyclo[Phe-Tyr-Lys(iPr)-DArg-2Nal-Gly-DGlu]-Arg-NH2] (FY[Lys(iPr)][dR][2Nal]G[dE]R-NH2; lactam N-7)", "values": [{"measurement": "half-life", "value": "~3", "unit": "h"}]}]}
